Assay results from the kinase profiling compilation of Christmann-Franck et al. (2016).

Assays:
Assay in all cases: KINOMEscan competition binding
Conditions in all cases: compound 10.0 µM
ACVRL1 (human) = ACVRL1 (human) (UniProt P37023)
ADCK4 (human) = ADCK4 (human) (UniProt Q96D53)
CAMK2B (human) = CAMK2B (human) (UniProt Q13554)
CDK9 (human) = CDK9 (human) (UniProt P50750)
CHEK1 (human) = CHEK1 (human) (UniProt O14757)
CHUK (human) = CHUK (human) (UniProt O15111)
CSNK1G2 (human) = CSNK1G2 (human) (UniProt P78368)
CSNK1G3 (human) = CSNK1G3 (human) (UniProt Q9Y6M4)
DCLK1 (human) = DCLK1 (human) (UniProt O15075)
[1] = test system: EGFR (human), P00533 [752-759 del]
EPHA6 (human) = EPHA6 (human) (UniProt Q9UF33)
IRAK3 (human) = IRAK3 (human) (UniProt Q9Y616)
MAP2K4 (human) = MAP2K4 (human) (UniProt P45985)
MAP3K5 (human) = MAP3K5 (human) (UniProt Q99683)
MAPK15 (human) = MAPK15 (human) (UniProt Q8TD08)
MAPK9 (human) = MAPK9 (human) (UniProt P45984)
NEK5 (human) = NEK5 (human) (UniProt Q6P3R8)
NEK6 (human) = NEK6 (human) (UniProt Q9HC98)
NEK7 (human) = NEK7 (human) (UniProt Q8TDX7)
PKN1 (human) = PKN1 (human) (UniProt Q16512)
PLK1 (human) = PLK1 (human) (UniProt P53350)
Chain of PLK1 (human) (P53350 whole entry, looked up): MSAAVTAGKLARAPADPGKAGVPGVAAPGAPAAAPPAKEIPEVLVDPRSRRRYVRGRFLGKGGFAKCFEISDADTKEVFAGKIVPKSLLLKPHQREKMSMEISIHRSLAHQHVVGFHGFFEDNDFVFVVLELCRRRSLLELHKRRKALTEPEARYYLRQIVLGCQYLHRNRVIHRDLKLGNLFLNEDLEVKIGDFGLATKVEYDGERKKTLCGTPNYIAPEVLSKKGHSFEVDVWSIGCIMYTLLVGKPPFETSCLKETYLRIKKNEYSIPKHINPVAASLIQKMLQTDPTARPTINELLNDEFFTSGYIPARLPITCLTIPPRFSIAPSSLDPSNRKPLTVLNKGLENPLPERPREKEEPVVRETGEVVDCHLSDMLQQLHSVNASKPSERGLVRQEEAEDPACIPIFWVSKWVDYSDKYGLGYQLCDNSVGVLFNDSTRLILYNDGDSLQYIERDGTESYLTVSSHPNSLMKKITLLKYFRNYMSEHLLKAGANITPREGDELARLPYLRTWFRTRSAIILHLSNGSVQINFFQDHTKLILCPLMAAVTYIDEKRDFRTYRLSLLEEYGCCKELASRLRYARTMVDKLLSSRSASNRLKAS

PRKAA2 (human) = PRKAA2 (human) (UniProt P54646)
PRKACB (human) = PRKACB (human) (UniProt P22694)
PRKCH (human) = PRKCH (human) (UniProt P24723)
Chain of PRKCH (human) (P24723 whole entry, looked up): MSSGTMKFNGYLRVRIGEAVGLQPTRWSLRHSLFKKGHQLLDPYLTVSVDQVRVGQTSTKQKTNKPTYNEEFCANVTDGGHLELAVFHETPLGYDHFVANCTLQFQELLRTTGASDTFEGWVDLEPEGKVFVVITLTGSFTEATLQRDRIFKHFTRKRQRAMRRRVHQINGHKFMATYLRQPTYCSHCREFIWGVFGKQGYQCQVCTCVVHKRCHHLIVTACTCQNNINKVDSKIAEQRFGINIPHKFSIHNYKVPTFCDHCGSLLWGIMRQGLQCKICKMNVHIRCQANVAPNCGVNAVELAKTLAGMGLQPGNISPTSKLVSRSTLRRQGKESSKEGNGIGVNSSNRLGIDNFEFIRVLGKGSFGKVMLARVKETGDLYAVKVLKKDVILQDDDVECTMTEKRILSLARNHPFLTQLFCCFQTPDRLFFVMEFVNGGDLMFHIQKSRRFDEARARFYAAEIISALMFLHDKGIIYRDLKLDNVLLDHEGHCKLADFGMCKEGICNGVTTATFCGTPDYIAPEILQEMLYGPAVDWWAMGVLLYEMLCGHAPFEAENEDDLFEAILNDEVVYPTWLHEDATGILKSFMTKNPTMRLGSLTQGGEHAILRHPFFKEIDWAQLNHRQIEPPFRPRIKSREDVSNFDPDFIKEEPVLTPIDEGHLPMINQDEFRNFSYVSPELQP

PRKD3 (human) = PRKD3 (human) (UniProt O94806)
Chain of PRKD3 (human) (O94806 whole entry, looked up): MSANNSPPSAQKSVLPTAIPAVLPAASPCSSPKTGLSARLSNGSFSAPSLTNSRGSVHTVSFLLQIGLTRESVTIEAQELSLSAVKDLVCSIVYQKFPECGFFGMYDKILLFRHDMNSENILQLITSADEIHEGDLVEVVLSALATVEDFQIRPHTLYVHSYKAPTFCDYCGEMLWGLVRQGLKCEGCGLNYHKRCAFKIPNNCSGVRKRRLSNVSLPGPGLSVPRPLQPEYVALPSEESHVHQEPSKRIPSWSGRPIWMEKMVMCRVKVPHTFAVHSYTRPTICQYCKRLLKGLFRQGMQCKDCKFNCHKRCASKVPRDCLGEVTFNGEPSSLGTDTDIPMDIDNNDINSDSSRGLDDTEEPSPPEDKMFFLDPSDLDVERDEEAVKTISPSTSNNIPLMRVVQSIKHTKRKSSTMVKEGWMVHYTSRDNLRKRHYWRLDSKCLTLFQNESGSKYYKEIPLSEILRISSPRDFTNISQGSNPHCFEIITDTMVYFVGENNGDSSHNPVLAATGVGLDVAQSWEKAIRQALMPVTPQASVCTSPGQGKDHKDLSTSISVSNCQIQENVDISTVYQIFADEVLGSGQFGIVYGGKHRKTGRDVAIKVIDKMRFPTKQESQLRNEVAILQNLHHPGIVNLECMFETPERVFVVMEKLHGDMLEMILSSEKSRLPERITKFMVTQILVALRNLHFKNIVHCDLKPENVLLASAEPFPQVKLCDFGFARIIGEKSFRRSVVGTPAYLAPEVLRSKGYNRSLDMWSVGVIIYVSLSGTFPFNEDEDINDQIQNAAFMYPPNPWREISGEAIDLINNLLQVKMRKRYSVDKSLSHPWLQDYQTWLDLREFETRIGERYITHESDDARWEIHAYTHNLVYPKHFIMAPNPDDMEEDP

[2] = test system: RET (human), P07949 [V804M]
Chain of RET (human), P07949 [V804M] (P07949 whole entry V804M, looked up): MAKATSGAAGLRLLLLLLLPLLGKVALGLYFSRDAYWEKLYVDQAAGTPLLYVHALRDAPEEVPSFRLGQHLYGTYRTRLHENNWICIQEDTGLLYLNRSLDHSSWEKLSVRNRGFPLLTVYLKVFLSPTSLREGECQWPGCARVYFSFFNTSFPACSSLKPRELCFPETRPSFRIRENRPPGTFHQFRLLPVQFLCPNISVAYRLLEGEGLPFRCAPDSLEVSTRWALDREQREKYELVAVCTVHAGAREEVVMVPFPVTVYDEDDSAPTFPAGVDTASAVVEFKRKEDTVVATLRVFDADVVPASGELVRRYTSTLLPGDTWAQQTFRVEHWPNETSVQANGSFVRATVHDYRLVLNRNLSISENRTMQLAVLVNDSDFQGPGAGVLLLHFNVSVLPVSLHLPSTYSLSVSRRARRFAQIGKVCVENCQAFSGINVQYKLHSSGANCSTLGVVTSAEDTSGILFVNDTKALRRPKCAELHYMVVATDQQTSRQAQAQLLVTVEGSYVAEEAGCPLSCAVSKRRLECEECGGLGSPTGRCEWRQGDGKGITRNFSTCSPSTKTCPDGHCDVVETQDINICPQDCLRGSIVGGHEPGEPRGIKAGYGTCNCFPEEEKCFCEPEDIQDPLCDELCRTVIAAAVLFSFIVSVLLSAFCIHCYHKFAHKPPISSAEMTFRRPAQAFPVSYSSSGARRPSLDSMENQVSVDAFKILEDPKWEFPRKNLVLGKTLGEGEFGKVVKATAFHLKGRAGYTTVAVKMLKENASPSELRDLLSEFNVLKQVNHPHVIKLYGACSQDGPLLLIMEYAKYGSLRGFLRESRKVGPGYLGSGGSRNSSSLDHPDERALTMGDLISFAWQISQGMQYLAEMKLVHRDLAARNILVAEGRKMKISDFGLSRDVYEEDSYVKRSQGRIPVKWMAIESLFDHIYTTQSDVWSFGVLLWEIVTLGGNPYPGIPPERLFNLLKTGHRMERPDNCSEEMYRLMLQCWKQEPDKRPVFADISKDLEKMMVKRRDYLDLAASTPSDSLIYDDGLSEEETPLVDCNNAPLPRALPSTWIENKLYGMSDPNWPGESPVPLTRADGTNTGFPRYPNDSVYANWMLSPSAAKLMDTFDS

STK32C (human) = STK32C (human) (UniProt Q86UX6)
STK33 (human) = STK33 (human) (UniProt Q9BYT3)
TEC (human) = TEC (human) (UniProt P42680)
TGFBR2 (human) = TGFBR2 (human) (UniProt P37173)
Chain of TGFBR2 (human) (P37173 whole entry, looked up): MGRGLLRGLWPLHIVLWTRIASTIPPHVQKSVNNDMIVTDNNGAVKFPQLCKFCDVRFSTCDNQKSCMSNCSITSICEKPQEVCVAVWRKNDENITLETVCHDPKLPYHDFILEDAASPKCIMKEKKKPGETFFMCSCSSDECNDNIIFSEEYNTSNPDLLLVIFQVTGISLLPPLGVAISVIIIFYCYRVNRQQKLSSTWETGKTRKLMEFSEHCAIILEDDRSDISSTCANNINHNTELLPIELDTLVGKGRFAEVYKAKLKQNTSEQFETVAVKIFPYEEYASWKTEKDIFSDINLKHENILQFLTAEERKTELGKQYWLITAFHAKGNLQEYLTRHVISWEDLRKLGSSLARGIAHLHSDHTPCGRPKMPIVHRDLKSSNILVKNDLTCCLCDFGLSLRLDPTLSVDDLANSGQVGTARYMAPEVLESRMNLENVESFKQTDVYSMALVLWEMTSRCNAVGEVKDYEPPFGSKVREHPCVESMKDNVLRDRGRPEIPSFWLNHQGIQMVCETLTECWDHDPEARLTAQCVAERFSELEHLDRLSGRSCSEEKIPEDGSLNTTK

TYRO3 (human) = TYRO3 (human) (UniProt Q06418)

Chain of CAMK2B (human) (Q13554 whole entry, looked up): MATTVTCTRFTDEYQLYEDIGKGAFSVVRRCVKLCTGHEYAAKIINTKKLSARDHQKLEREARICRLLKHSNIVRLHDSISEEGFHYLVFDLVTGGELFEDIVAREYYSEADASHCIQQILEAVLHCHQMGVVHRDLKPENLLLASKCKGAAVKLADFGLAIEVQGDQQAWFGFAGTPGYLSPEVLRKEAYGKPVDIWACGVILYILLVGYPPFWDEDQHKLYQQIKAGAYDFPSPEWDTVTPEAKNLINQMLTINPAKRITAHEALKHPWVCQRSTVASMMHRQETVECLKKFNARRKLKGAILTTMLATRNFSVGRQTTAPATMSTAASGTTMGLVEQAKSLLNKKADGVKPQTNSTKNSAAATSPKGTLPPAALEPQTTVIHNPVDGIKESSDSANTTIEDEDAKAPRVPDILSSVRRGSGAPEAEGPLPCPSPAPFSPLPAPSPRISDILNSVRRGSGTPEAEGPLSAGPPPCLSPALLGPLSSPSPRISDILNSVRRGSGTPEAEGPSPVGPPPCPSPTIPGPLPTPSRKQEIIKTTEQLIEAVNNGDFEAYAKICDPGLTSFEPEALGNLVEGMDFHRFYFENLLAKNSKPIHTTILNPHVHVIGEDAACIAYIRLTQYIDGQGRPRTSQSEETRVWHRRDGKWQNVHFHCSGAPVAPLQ
Chain of CDK9 (human) (P50750 whole entry, looked up): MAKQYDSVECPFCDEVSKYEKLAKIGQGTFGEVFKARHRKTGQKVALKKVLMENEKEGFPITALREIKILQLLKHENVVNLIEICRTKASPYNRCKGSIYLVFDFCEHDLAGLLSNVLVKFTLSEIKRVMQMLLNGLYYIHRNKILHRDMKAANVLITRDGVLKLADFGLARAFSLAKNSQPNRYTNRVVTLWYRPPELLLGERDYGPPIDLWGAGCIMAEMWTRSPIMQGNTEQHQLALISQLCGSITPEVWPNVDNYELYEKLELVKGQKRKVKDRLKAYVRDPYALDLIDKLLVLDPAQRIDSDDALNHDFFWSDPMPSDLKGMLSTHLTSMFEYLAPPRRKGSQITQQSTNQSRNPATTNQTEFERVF

**Q.** What does the source list for `CNC(=O)c1ccc(Nc2cc(Nc3ccccc3S(=O)(=O)C(C)C)c3cc[nH]c3n2)nc1`?
**A.** kinase still bound, per cent of control (ACVRL1 (human)): 100%; kinase still bound, per cent of control (ADCK4 (human)): 25%; kinase still bound, per cent of control (CAMK2B (human)): 100%; kinase still bound, per cent of control (CDK9 (human)): 100%; kinase still bound, per cent of control (CHEK1 (human)): 100%; kinase still bound, per cent of control (CHUK (human)): 100%; kinase still bound, per cent of control (CSNK1G2 (human)): 3.1%; kinase still bound, per cent of control (CSNK1G3 (human)): 22%; kinase still bound, per cent of control (DCLK1 (human)): 100%; kinase still bound, per cent of control [1]: 100%; kinase still bound, per cent of control (EPHA6 (human)): 29%; kinase still bound, per cent of control (IRAK3 (human)): 15%; kinase still bound, per cent of control (MAP2K4 (human)): 100%; kinase still bound, per cent of control (MAP3K5 (human)): 100%; kinase still bound, per cent of control (MAPK15 (human)): 8%; kinase still bound, per cent of control (MAPK9 (human)): 100%; kinase still bound, per cent of control (NEK5 (human)): 100%; kinase still bound, per cent of control (NEK6 (human)): 100%; kinase still bound, per cent of control (NEK7 (human)): 100%; kinase still bound, per cent of control (PKN1 (human)): 0%; kinase still bound, per cent of control (PLK1 (human)): 19%; kinase still bound, per cent of control (PRKAA2 (human)): 8.9%; kinase still bound, per cent of control (PRKACB (human)): 13%; kinase still bound, per cent of control (PRKCH (human)): 100%; kinase still bound, per cent of control (PRKD3 (human)): 100%; kinase still bound, per cent of control [2]: 1.2%; kinase still bound, per cent of control (STK32C (human)): 100%; kinase still bound, per cent of control (STK33 (human)): 1.4%; kinase still bound, per cent of control (TEC (human)): 2.6%; kinase still bound, per cent of control (TGFBR2 (human)): 100%; kinase still bound, per cent of control (TYRO3 (human)): 29%
